Assay results: US11566057B2, “Long-acting co-agonists of the glucagon and GLP-1 receptors” (Merck Sharp & Dohme Corp., priority 2017, dated 2023)
Numbered stars: 1 amine (or outer) side, 2 acyl side, 3 side chain; on linkers, the order of the positions; unused ones are H or OH. Square brackets hold non-standard residues; d marks the D form. Side chains are listed from the residue outwards. Peptide text beside a SMILES is read from it. * marks the point of attachment. C16 diacid = O=C(O)CCCCCCCCCCCCCCC(=O)*; γGlu = O=C(O)[C@H](CCC(=O)[*:2])N[*:1]; Met(O2) = CS(=O)(=O)CC[C@H](N)C(=O)O; AEEA = NCCOCCOCC(=O)O; Aib = CC(C)(N)C(=O)O

Assays:
[1] = biological target: T1, human GLP1R (Homo sapiens, UniProt P43220); assay: cAMP activity assay at the GLP-1 receptor (GLP1R); type: cell-based; details: summary statement: EC50 at each of the glucagon and GLP-1 receptors; read-out: EC50 at the GLP-1 receptor
T1 construct: expressed in transfected cells; growth medium holds Blasticidin and Hygromycin
Summary of the method: (§1)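 Peptides serially diluted from DMSO (10 points) and added to frozen-stock cells bearing human GLP1R (10,000 cells/well) or GCGR (30,000 cells/well), 1 h at RT, dark. EC50 by four-parameter logistic fit of HitHunter cAMPXS luminescence, read following overnight RT incubation.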

[2] = biological target: T2, human GCGR (Homo sapiens, UniProt P47871); assay: cAMP activity assay at the Glucagon receptor (GCGR); type: cell-based; details: for hGCGR/hGLP1R (hTone): ratio of GCGR EC50 to GLP1R EC50; for EC50: summary statement: EC50 at each of the glucagon and GLP-1 receptors, read-out: EC50 at the glucagon receptor
T2 construct: expressed in transfected cells; growth medium holds Blasticidin and Hygromycin
Summary of the method: as §1

T2 sequence (P47871 26-477): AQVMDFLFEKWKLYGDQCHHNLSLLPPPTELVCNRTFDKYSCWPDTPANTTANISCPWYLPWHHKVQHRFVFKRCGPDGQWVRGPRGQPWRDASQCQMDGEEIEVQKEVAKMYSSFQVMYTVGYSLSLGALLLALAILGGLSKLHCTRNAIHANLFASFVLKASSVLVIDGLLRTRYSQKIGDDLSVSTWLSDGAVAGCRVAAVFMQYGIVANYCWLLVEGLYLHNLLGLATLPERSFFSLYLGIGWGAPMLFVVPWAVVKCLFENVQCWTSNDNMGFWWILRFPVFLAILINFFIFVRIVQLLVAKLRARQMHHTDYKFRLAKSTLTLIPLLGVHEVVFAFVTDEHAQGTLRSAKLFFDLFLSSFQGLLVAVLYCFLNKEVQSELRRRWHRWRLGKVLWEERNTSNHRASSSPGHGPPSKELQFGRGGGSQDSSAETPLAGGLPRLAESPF
T1 sequence (P43220 24-463): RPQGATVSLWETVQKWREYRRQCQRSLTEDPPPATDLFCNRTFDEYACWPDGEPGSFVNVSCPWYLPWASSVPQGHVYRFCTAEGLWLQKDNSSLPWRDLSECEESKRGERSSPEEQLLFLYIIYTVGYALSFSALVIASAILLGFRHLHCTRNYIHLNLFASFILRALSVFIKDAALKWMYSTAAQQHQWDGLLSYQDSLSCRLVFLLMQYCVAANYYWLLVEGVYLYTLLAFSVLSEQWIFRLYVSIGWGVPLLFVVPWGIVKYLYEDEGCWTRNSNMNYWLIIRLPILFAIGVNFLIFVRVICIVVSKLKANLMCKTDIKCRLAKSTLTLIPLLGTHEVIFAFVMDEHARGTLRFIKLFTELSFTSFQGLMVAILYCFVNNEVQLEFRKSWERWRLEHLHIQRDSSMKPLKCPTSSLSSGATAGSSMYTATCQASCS

| SMILES | EC50 [1] [nM] | hGCGR/hGLP1R (hTone) [2] | EC50 [2] [nM] |
| --- | --- | --- | --- |
| CC(C)C[C@H](NC(=O)[C@H](Cc1c[nH]c2ccccc12)NC(=O)[C@H](CCCCNC(=O)COCCOCCNC(=O)COCCOCCNC(=O)CC[C@H](NC(=O)CCCCCCCCCCCCCCC(=O)O)C(=O)O)NC(=O)[C@@H](NC(=O)[C@H](Cc1ccccc1)NC(=O)[C@H](CC(=O)O)NC(=O)[C@H](CCC(N)=O)NC(=O)[C@H](C)NC(=O)[C@H](C)NC(=O)[C@H](CCCNC(=N)N)NC(=O)C(C)(C)NC(=O)[C@H](CC(=O)O)NC(=O)[C@H](CC(C)C)NC(=O)[C@H](Cc1ccc(O)cc1)NC(=O)[C@H](CCCCN)NC(=O)[C@H](CO)NC(=O)[C@H](Cc1ccc(O)cc1)NC(=O)[C@H](CC(=O)O)NC(=O)[C@H](CO)NC(=O)[C@@H](NC(=O)[C@H](Cc1ccccc1)NC(=O)[C@@H](NC(=O)CNC(=O)[C@H](CCC(N)=O)NC(=O)C(C)(C)NC(=O)[C@@H](N)Cc1c[nH]cn1)[C@@H](C)O)[C@@H](C)O)C(C)C)C(=O)N[C@@H](CCS(C)(=O)=O)C(=O)N[C@@H](CCC(=O)O)C(=O)N[C@H](C(N)=O)[C@@H](C)O [TP815] (H-H[Aib]QGTFTSDYSKYLD[Aib]RAAQDFVK([AEEA-AEEA-γGlu-C16 diacid])WL[Met(O2)]ET-NH2) | < 5 | 0.7 | < 5 |
| CC(C)C[C@H](NC(=O)[C@H](Cc1ccc(O)cc1)NC(=O)[C@H](CCCCN)NC(=O)[C@H](CO)NC(=O)[C@H](Cc1ccc(O)cc1)NC(=O)[C@H](CC(=O)O)NC(=O)[C@H](CO)NC(=O)[C@@H](NC(=O)[C@H](Cc1ccccc1)NC(=O)[C@@H](NC(=O)CNC(=O)[C@H](CCC(N)=O)NC(=O)C(C)(C)NC(=O)[C@@H](N)Cc1c[nH]cn1)[C@@H](C)O)[C@@H](C)O)C(=O)N[C@@H](CC(=O)O)C(=O)N[C@@H](C)C(=O)N[C@@H](CCCNC(=N)N)C(=O)N[C@@H](C)C(=O)N[C@@H](C)C(=O)N[C@@H](CCC(N)=O)C(=O)N[C@@H](CCCCNC(=O)COCCOCCNC(=O)COCCOCCNC(=O)CC[C@H](NC(=O)CCCCCCCCCCCCCCC(=O)O)C(=O)O)C(=O)N[C@@H](Cc1ccccc1)C(=O)N[C@H](C(=O)N[C@@H](CCC(N)=O)C(=O)N[C@@H](Cc1c[nH]c2ccccc12)C(=O)N[C@@H](CC(C)C)C(=O)N[C@@H](CCS(C)(=O)=O)C(=O)N[C@@H](CCC(=O)O)C(=O)N[C@H](C(N)=O)[C@@H](C)O)C(C)C [TP825] (H-H[Aib]QGTFTSDYSKYLDARAAQK([AEEA-AEEA-γGlu-C16 diacid])FVQWL[Met(O2)]ET-NH2; N-terminus assumed) | < 5 | 2.0 | < 5 |
| CC(C)C[C@H](NC(=O)[C@H](Cc1ccc(O)cc1)NC(=O)[C@H](CCCCN)NC(=O)[C@H](CO)NC(=O)[C@H](Cc1ccc(O)cc1)NC(=O)[C@H](CC(=O)O)NC(=O)[C@H](CO)NC(=O)[C@@H](NC(=O)[C@H](Cc1ccccc1)NC(=O)[C@@H](NC(=O)CNC(=O)[C@H](CCC(N)=O)NC(=O)C(C)(C)NC(=O)[C@@H](N)Cc1c[nH]cn1)[C@@H](C)O)[C@@H](C)O)C(=O)N[C@@H](CC(=O)O)C(=O)N[C@@H](C)C(=O)N[C@@H](CCCNC(=N)N)C(=O)N[C@@H](C)C(=O)N[C@@H](C)C(=O)N[C@@H](CCCCNC(=O)COCCOCCNC(=O)COCCOCCNC(=O)CC[C@H](NC(=O)CCCCCCCCCCCCCCC(=O)O)C(=O)O)C(=O)N[C@@H](CC(=O)O)C(=O)N[C@@H](Cc1ccccc1)C(=O)N[C@H](C(=O)N[C@@H](CCC(N)=O)C(=O)N[C@@H](Cc1c[nH]c2ccccc12)C(=O)N[C@@H](CC(C)C)C(=O)N[C@@H](CCS(C)(=O)=O)C(=O)N[C@@H](CCC(=O)N[C@H](C(N)=O)[C@@H](C)O)C(=O)O)C(C)C [TP826] (H-H[Aib]QGTFTSDYSKYLDARAAK([AEEA-AEEA-γGlu-C16 diacid])DFVQWL[Met(O2)][γGlu]T-NH2) | < 5 | 2.7 | < 5 |
| CC(C)C[C@H](NC(=O)[C@H](Cc1ccc(O)cc1)NC(=O)[C@H](CCCCN)NC(=O)[C@H](CO)NC(=O)[C@H](Cc1ccc(O)cc1)NC(=O)[C@H](CC(=O)O)NC(=O)[C@H](CO)NC(=O)[C@@H](NC(=O)[C@H](Cc1ccccc1)NC(=O)[C@@H](NC(=O)CNC(=O)[C@H](CCC(N)=O)NC(=O)C(C)(C)NC(=O)[C@@H](N)Cc1c[nH]cn1)[C@@H](C)O)[C@@H](C)O)C(=O)N[C@@H](CC(=O)O)C(=O)N[C@@H](C)C(=O)N[C@@H](CCCNC(=N)N)C(=O)N[C@@H](C)C(=O)N[C@@H](C)C(=O)N[C@@H](CCC(N)=O)C(=O)N[C@@H](CCCCNC(=O)COCCOCCNC(=O)COCCOCCNC(=O)CC[C@H](NC(=O)CCCCCCCCCCCCCCC(=O)O)C(=O)O)C(=O)N[C@@H](Cc1ccccc1)C(=O)N[C@H](C(=O)N[C@@H](CCC(N)=O)C(=O)N[C@@H](Cc1c[nH]c2ccccc12)C(=O)N[C@@H](CC(C)C)C(=O)N[C@@H](CCS(C)(=O)=O)C(=O)N[C@@H](CCC(=O)N[C@H](C(N)=O)[C@@H](C)O)C(=O)O)C(C)C [TP827] (H-H[Aib]QGTFTSDYSKYLDARAAQK([AEEA-AEEA-γGlu-C16 diacid])FVQWL[Met(O2)][γGlu]T-NH2) | < 5 | 1.6 | < 5 |
| CC(C)C[C@H](NC(=O)[C@H](Cc1c[nH]c2ccccc12)NC(=O)[C@H](CCCCNC(=O)COCCOCCNC(=O)COCCOCCNC(=O)CC[C@H](NC(=O)CCCCCCCCCCCCCCC(=O)O)C(=O)O)NC(=O)[C@@H](NC(=O)[C@H](Cc1ccccc1)NC(=O)[C@H](CC(=O)O)NC(=O)[C@H](CCC(N)=O)NC(=O)[C@H](C)NC(=O)[C@H](C)NC(=O)[C@H](CCCNC(=N)N)NC(=O)C(C)(C)NC(=O)[C@H](CC(=O)O)NC(=O)[C@H](CC(C)C)NC(=O)[C@H](Cc1ccc(O)cc1)NC(=O)[C@H](CCCCN)NC(=O)[C@H](CO)NC(=O)[C@H](Cc1ccc(O)cc1)NC(=O)[C@H](CC(=O)O)NC(=O)[C@H](CO)NC(=O)[C@@H](NC(=O)[C@H](Cc1ccccc1)NC(=O)[C@@H](NC(=O)CNC(=O)[C@H](CCC(N)=O)NC(=O)C(C)(C)NC(=O)[C@@H](N)Cc1c[nH]cn1)[C@@H](C)O)[C@@H](C)O)C(C)C)C(=O)N[C@@H](CCS(C)(=O)=O)C(=O)N[C@@H](CCC(=O)N[C@H](C(N)=O)[C@@H](C)O)C(=O)O [TP828] (H-H[Aib]QGTFTSDYSKYLD[Aib]RAAQDFVK([AEEA-AEEA-γGlu-C16 diacid])WL[Met(O2)][γGlu]T-NH2) | < 5 | 0.4 | < 5 |
